Measured values published in EP1064941A1, “Use of melatoninergic ligands for obtaining pharmaceutical compositions for the prevention or the treatment of gastrointestinal pathologies” (ADIR ET COMPAGNIE, priority 1999, dated 2001).

Experiments:
Format in all cases: in vivo
[1] = test system: durée de la réponse postprandiale; assay: Effects of melatoninergic ligands on the duration of the postprandial response (irregular intestinal motor activity) in the rat; conditions: male Wistar rats, 30 min before access to food
Experimental: Chez le rat, la durée de la réponse postprandiale évaluée par l'activité motrice irrégulière intestinale, est plus courte en période d'obscurité que pendant la période diurne et ceci pour une même quantité d'aliments ingérés. Afin de confirmer que cette diminution de la durée pouvait être due à la sécrétion nocturne de mélatonine, le protocole suivant a été réalisé : des rats mâles Wistar adultes habitués à un cycle lumière/obscurité 12h/12h sont implantés sous anesthésie d'électrodes sur la paroi de l'intestin afin d'enregistrer l'activité myoélectrique. Les rats ont un accès limité (30 min) à la nourriture soit pendant la période nocturne soit pendant la période diurne. Les molécules de l'invention sont administrées 30 min avant l'accès à la nourriture. Le paramètre évalués dans ces études est la durée de l'activité irrégulière motrice. Les périodes de complexes myoélectriques ne sont pas prises en compte dans le cas d'induction par la molécule testée.

[2] = test system: complexes myoélectriques intestinaux; assay: Effects of melatoninergic ligands on intestinal myoelectric complexes in the rat (electrodes implanted on the intestinal wall); conditions: male Wistar rats
Experimental: Des rats mâles Wistar adultes placés en cycle lumière/obscurité 12h/12h sont implantés sous anesthésie d'électrodes sur la paroi de l'intestin afin d'enregistrer l'activité myoélectrique. Les rats ont un accès limité (30 min) à la nourriture pendant la période diurne.
Les composés de l'invention agonistes mélatoninergiques ou la mélatonine sont administrés par voie intraveineuse à la dose de 1 mg/kg, 10 min avant le repas. […] Ces complexes myoélectriques apparaissent tout d'abord sur le duodénum avec un délai de 50 min puis ils se propagent sur le jéjunum et l'iléon.

[3] = test system: inflammation intestinale induite par l'indométhacine; assay: Indomethacin-induced intestinal inflammation model in the rat; conditions: male Wistar rats, 50 mg/kg ip ten minutes before each of two indomethacin doses (7,5 mg/kg sc, 24 h apart)
Text: L'inflammation intestinale induite par administration d'indométhacine chez le rat est considérée comme un modèle animal physiopathologique présentant des modifications du comportement et de la motricité intestinale similaires à celles observées chez les patients atteints de la maladie de Crohn (Yamada T. et al, 1993, Mechanisms of acute and chronic intestinal inflammation induces by indomethacin, Inflammation, 17-6, 641-62; Gurbuz V. et al, 1999, Role of nitric oxide in indomethacin-induced gastric mucosal dysfunction in the rat, Experimental Physiology, 84, 319-332; Chen K. et al, 1999, Expression of NO II and its role in the experimental small bowel ulceration in rats, Surgery, 126, 553-561).
Des rats mâles Wistar adultes placés en cycle lumière/obscurité 12h/12h sont implantés sous anesthésie d'électrodes sur la paroi de l'intestin afin d'enregistrer l'activité myoélectrique. Les animaux sont divisés en plusieurs groupes.
Le groupe de rats témoins reçoit deux administrations d'indométhacine (7,5 mg/kg sc) espacées de 24 h. Les autres groupes de rats sont prétraités par la mélatonine ou un ligand mélatoninergique (50 mg/kg ip) dix minutes avant les deux administrations d'indométhacine.
Les animaux sont suivis sur le plan comportemental (prise alimentaire), physiologique (aspect du pelage, diarrhées) et motricité intestinale.

Compound	durée de la réponse postprandiale nocturne ([1]; given 5 h after onset of darkness)	blocage de l'induction des complexes myoélectriques par l'agoniste ([2]; antagonist pretreatment 2 mg/kg subcutaneous, 30 min before the agonist)	symptômes de l'inflammation intestinale (diarrhées, perte de poils, prise alimentaire, motricité intestinale) [3]	durée de la réponse postprandiale diurne ([1]; 100 µg/kg intravenous, given 4 h after onset of light)	apparition de complexes myoélectriques pendant la réponse motrice postprandiale ([2]; 1 mg/kg intravenous, 10 min before the meal, daytime feeding (30 min access))	délai d'apparition des complexes myoélectriques sur le duodénum ([2]; 1 mg/kg intravenous, 10 min before the meal, complexes then propagate to jejunum and ileum) [min]
CCc1ccc2scc(CCNC(C)=O)c2c1 [N-[2-(5-éthyl-1-benzothiophèn-3-yl)éthyl]acétamide]	entraîne un allongement de la réponse postprandiale qui devient d'une durée équivalente à la réponse observée le jour	empêche toute formation de complexe myoélectrique	–	–	–	–
COc1ccc2[nH]cc(CCNC(C)=O)c2c1 [mélatonine]	–	–	ne présentent plus de diarrhées, de perte de poils, de diminution de la prise alimentaire et de la motricité intestinale	réduit la durée de la réponse postprandiale et la ramène à une durée de type nocturne	induisent l'apparition de complexes myoélectriques pendant la réponse motrice postprandiale	50
